Measured values taken from ChEMBL document CHEMBL1150020, “Optical isomers of RP 64406: New potent antiglutamate agents” (1993).

Test system: Rattus norvegicus
Experiment: Ability to protect against glutamate-induced convulsion in rat upon i.p. administration
Format: functional
[1] = Rattus norvegicus, ip, read-out: ED50

Row | SMILES | ED50 [1] [mg/kg] | ED50 [mg/kg]
1 | CSCCn1c(=N)sc2cc(OC(F)(F)F)ccc21 | 1 | 
2 | C[S+]([O-])CCn1c(=N)sc2cc(OC(F)(F)F)ccc21 (single isomer, unassigned; (+)) |  | 1
3 | C[S+]([O-])CCn1c(=N)sc2cc(OC(F)(F)F)ccc21 (single isomer, unassigned; (-)) | 1.6 | 
4 | C[S+]([O-])CCn1c(=N)sc2cc(OC(F)(F)F)ccc21 (stereo in doubt; 3) |  | 1.1
5 | Nc1nc2ccc(OC(F)(F)F)cc2s1 [RILUZOLE] | 3.2 | 
